Laboratory results: patent US10093644B2, “3-[(Benzo[D][1,3]dioxolan-4-yl)-oxy]-3-arylpropylamine type compounds and applications thereof” (NHWA PHARMA. CORPORATION, priority 2014, dated 2018)
Several values for one entry are separate records, joined by “and”; a condition that tells them apart may be missing. Equal entries are not always repeated. Where two headings read alike, the source gives them in different places.

Legend:
mice [1] = assay: Mice tail suspension test (acquired despair experiment); assay type: in vivo; settings: for immobilized time of mice tail suspension: i.g. (gavage); for ED50: Mus musculus, read-out: tail suspension ED50
mice [2] = assay: Mice forced swimming test (acquired despair experiment); assay type: in vivo; settings: for immobilized time of mice swimming: i.g. (gavage); for ED50: Mus musculus, read-out: swimming ED50
[3] = Therapeutic index evaluation (LD50/ED50); assay type: in vivo; settings: for therapeutic index (swimming): LD50/ED50, swimming ED50; for therapeutic index (tail suspension): LD50/ED50, tail suspension ED50; for LD50: half lethal dose
[4] = Acid stability evaluation in diluted hydrochloric acid; assay type: physicochemical; settings: 0.1 mol/L hydrochloric acid
Procedure: The compound according to the invention was incubated in diluted hydrochloric acid (0.1 mol/L) at 37° C. for 2 h to test the decomposition of the compound (shown as %) and the results were shown as follows.

| SMILES | tail suspension ED50 (mice [1]; half effective dose) [mg/kg] | swimming ED50 (mice [2]; half effective dose) [mg/kg] | therapeutic index (swimming) [3] | therapeutic index (tail suspension) [3] | LD50 [3] [mg/kg] | ratio of the compound after incubation in diluted hydrochloric acid at 37° C. for 2 h [4] [%] | immobilized time of mice tail suspension (mice [1]; 5 mg/kg, oxalate form) [s] | immobilized time of mice tail suspension (mice [1]; 10 mg/kg, oxalate form) [s] | ED50 (mice [1]; half effective dose) [mg/kg] | immobilized time of mice swimming (mice [2]; 5 mg/kg, oxalate form) [s] | immobilized time of mice swimming (mice [2]; 10 mg/kg, oxalate form) [s] | ED50 (mice [2]; half effective dose) [mg/kg] | LD50 ([3]; in vivo, read-out: LD50) [mg/kg] | immobilized time of mice tail suspension (mice [1]; 20 mg/kg) [s] | ED50 (mice [1]) [mg/kg] | immobilized time of mice swimming (mice [2]; 20 mg/kg) [s] | ED50 (mice [2]) [mg/kg] |
| --- | --- | --- | --- | --- | --- | --- | --- | --- | --- | --- | --- | --- | --- | --- | --- | --- | --- |
| CNCCC(Oc1cccc2c1OCO2)c1cccs1 (centres unmarked) [ammuxetine, reference compound] | 3.89 | 2.58 | 68.9 | 45.7 | 177.8 | 44 |  |  |  |  |  |  |  |  |  |  |  |
| CNCCC(Oc1cccc2c1OCO2)c1ccccc1.O=C(O)C(=O)O (centres unmarked) [compound 2, 3-[(benzo[d][1,3]dioxolan-4-yl)-oxy]-N-methyl-3-phenylpropylamine oxalate] |  |  | 88.8 | 25.2 |  | 99 | 44.3 ± 34.5 | 8.2 ± 13.7 | 7.06 | 38.9 ± 34.5 | 28.6 ± 19.3 | 2 | 178 |  |  |  |  |
| CN(C)CCC(Oc1cccc2c1OCO2)c1ccc(F)cc1.O=C(O)C(=O)O (centres unmarked) [compound 3, 3-[(benzo[d][1,3]dioxolan-4-yl)-oxy]-3-(4-fluorophenyl)-N,N-dimethylpropylamine oxalate] |  |  | 155.6 | 82.2 |  | 99 | 22.0 ± 28.2 | 9.2 ± 13.3 | 4.32 | 42.0 ± 56.1 | 31.0 ± 54.2 | 2.28 | 355 |  |  |  |  |
| CNCCC(Oc1cccc2c1OCO2)c1ccc(F)cc1.O=C(O)C(=O)O (centres unmarked) [compound 4, 3-[(benzo[d][1,3]dioxolan-4-yl)-oxy]-3-(4-fluorophenyl)-N-methylpropylamine oxalate] |  |  |  |  |  | 99 | 21.4 ± 12.8 | 29.6 ± 13.1 |  | 74.1 ± 36.8 | 60.1 ± 42.2 |  |  |  |  |  |  |
| CNCCC(Oc1cccc2c1OCO2)c1cccc(OC)c1.O=C(O)C(=O)O (centres unmarked) [compound 12, 3-[(benzo[d][1,3]dioxolan-4-yl)-oxy]-3-(3-methoxylphenyl)-N-methylpropylamine oxalate] |  |  | 60.7 | 37.4 |  | 99 | 64.1 ± 24.5 | 33.0 ± 15.6 | 8.57 | 92.0 ± 45.5 | 58.2 ± 45.3 | 5.28 | 320 |  |  |  |  |
| Cc1cccc(C(CCN(C)C)Oc2cccc3c2OCO3)c1.O=C(O)C(=O)O (centres unmarked) [compound 13, 3-[(benzo[d][1,3]dioxolan-4-yl)-oxy]-3-(3-methylphenyl)-N,N-dimethylpropylamine oxalate] |  |  |  |  |  | 99 | 71.3 ± 32.7 | 29.8 ± 21.3 |  | 87.9 ± 55.6 | 60.2 ± 38.6 |  |  |  |  |  |  |
| CNCC[C@H](Oc1cccc2ccccc12)c1cccs1 [duloxetine, reference compound] |  |  | 98.8 and 98.9 | 82.1 |  | 18 |  | 34.7 ± 42.3 |  |  | 76.0 ± 57.8 |  | 489 | 17.8 ± 18.5 | 5.96 | 41.2 ± 33.3 | 4.94 |
